{"source": "patent US20200291082A1", "about": "“PREVENTION AND TREATMENT OF GRAFT-VERSUS-HOST-DISEASE WITH DEFENSINS” (priority 2017, published 2020)", "key": {"[1]": {"system": "house dust mite model of allergic asthma", "assay": "therapeutic intranasal versus oral hBD2 in murine house dust mite model of allergic asthma (Example 10)", "format": "in vivo, BALB/c mice", "conditions": "dexamethasone 1 mg/kg BID oral; hBD2 both IN doses (0.4 mg/kg/day TID and 1.7 mg/kg/day TID)", "protocol": "To determine and assess the efficacy of IN versus oral therapeutic intervention with defensins in a murine house dust mite model of allergic asthma.\nTreatment regime: Female 7-10 weeks old BALB/c mice were randomly allocated into 7 study groups one day prior to study start and subcutaneously (SC) sensitized to house dust mite (100 μg HDM in 200 μL saline plus Freund's complete adjuvant in 0.9% saline). Mice were then intranasally (IN) challenged with HDM on day 14 (HDM 25 μg in 50 μL of saline). Dexamethasone was administered orally (1 mg/kg BID; 50 μL phosphate buffered saline (PBS)) on day 14. hBD2 was administered IN or orally (1.7 mg/kg TID IN; 0.4 mg/kg TID IN; 0.4 mg/kg TID orally, 50 μL phosphate buffered saline) on day 14. The initial dose was administered 60 minutes prior to challenge, and the subsequent doses approximately 6 hours apart (FIG. 5).\nAirway inflammation: At 48 hours post challenge, bronchoalveolar lavage was performed washing the lungs with 3 volumes of cold PBS (0.4; 0.3 and 0.3 mL, total 1 mL). Total and differential leucocyte cell counts were determined on an automated haematological analyser Sysmex XT-2000iV.\nData are represented as airway resistance at […] methacholine and as dose responsive curves.\nLung sampling for cytokine analysis: After completion of every BAL, lungs were removed from the thorax, snap frozen in liquid nitrogen and stored frozen at −80 degrees Celsius until analysis of cytokine concentration of IL-1β, TNF-α, IL-6, IL-10 and IFNγ by ELISA."}, "[2]": {"system": "Trinitrobenzene Sulfonic Acid induced colitis", "assay": "prophylactic murine 8-day Trinitrobenzene Sulfonic Acid induced colitis model (Example 3)", "format": "in vivo, BALB/cByJ mice", "conditions": "Prednisolone 10 mg/kg s.c. once daily; hBD2 at 0.1, 0.3 and 1 mg/kg s.c. once daily", "protocol": "Anti-inflammatory effect of s.c. administration of hBD2 versus s.c. prednisolone in a prophylactic murine, 8-day Trinitrobenzene Sulfonic Acid induced colitis model.\n105 male BALB/cByJ mice housed in groups of five per cage were allocated to 7 different treatment groups. Colitis was induced by intracolonic administration of trinitrobenzene sulfonic acid on day 0 under light anaesthesia resulting in significant inflammation and injury of the colonic tissue. The animals were treated with hBD2 at four different dosing levels once daily (1 mg/kg, 0.3 mg/kg, 0.1 mg/kg, and 0.03 mg/kg) or Prednisolone 10 mg/kg once daily dosed subcutaneously under the dorsal skin or PBS as vehicle for 7 days.\n(§1) A disease activity index (DAI) scoring system was applied for clinical assessment (FIG. 7). The animals were sacrificed on day 10 and colon removed for histological assessment employing a histological scoring system (FIG. 8)."}, "[3]": {"system": "Dextran Sodium Sulphate induced colitis", "assay": "prophylactic murine 10-day oral Dextran Sodium Sulphate induced colitis model, oral hBD2 versus oral prednisolone (Example 2)", "format": "in vivo, C57BL/6 mice", "conditions": "versus vehicle; Prednisolone 1 mg/kg twice per day p.o.; oral hBD2 all doses", "protocol": "Anti-inflammatory effect of oral administration of hBD2 versus oral prednisolone in a prophylactic murine, 10-day, oral Dextran Sodium Sulphate induced colitis model.\n50 male C57BL/6 mice housed in groups of five per cage were allocated to 5 different treatment groups. All animals had their drinking water supplemented with DSS 2% for 7 days to induce colitis resulting in significant inflammation and injury of the colonic tissue. The animals were treated with oral hBD2 dosed at three different dose levels twice per day or prednisolone 1 mg/kg twice per day or PBS as vehicle for 10 days.\nas §1"}, "[4]": {"system": "CD4+CD25+ Tcell transfer induced colitis", "assay": "therapeutic murine 14 weeks CD4+CD25+ Tcell transfer induced colitis model (Example 6)", "format": "in vivo, SCID mice", "conditions": "hBD2 1 mg/kg s.c. OD, Dexamethasone 0.3 mg/kg i.p. OD, Enbrel 100 μg/mouse s.c. twice weekly", "source_text": "Efficacy of s.c. administration of hBD2 versus s.c. anti TNF-α (Enbrel) and intraperitoneal dexamethasone in a therapeutic, murine, 14 weeks, CD4+CD25+ Tcell transfer induced colitis model.\n70 female BALB/c mice housed in groups of five per cage were allocated to 7 different treatment groups. Colitis was induced in SCID mice by transplantation of CD4+CD25+ Tcells from BALB/c mice. Lymphocytes isolated from spleen and lymph nodes from BALB/c mice were subjected to negative selection of CD4+ Tcells. Afterwards, CD4+CD25+ cells were positively isolated by binding to the beads from the CD4+ Tcell suspensions and the CD4+CD25− were collected from the supernatant. The animals were treated with hBD2, 0.1 mg/kg s.c. OD; 1 mg/kg s.c. OD or 3 mg/kg s.c. OD or with mouse anti TNFα 100 μg/mouse s.c. twice weekly or with dexamethasone 0.3 mg/kg intraperitoneally OD or PBS s.c. as vehicle from day 7 and 86 consecutive days.\nClinical assessment was based on body weight loss, stool consistency and presence of blood per rectum. The animals were sacrificed on day 95 and colon removed for assessment of weight and myeloperoxidase activity."}, "[5]": {"system": "gut microbiota in high fat diet murine model", "assay": "prophylactic treatment with defensins in murine high fat diet model, gut microbiota (Example 7)", "format": "in vivo, mice", "source_text": "Protection and preservation of gut microbiota by prophylactic treatment with defensins. Mice: Mice were housed in trios, 4 cages per group. Feed intake was registered daily just before lights were turned off at 6 pm. Individual mice were subjected to experimental procedures in altered order both group and cage wise. Mice were kept at room temperature under a 12-hour light/dark cycle at SPF standard conditions. Diets: For dosing, the average weight was estimated to be 25 grams per mouse. Mice eat approximately 3 grams of feed per mouse per day. Treatment regime: Mice were fed either a high fat diet (HFD) or a low fat (LF) control diet. The HFD contained 4 subgroups; 1 hBD2, 1 HD5, 1 hBD2/HD5 and 1 standard HFD without supplementation of defensins (FIG. 3). Defensin concentration was 1,2 mg hBD2 per kg mouse per day. HD5 was given in equimolar concentration to hBD2. […] Microbial analyses were carried out to study the microbiota of the intestine. Longitudinal 16S characterization was conducted on 4 paired samples from 60 mice, 240 samples in total. Each mouse was sampled prior to diet change, 1 week post diet change, 4 weeks post diet change and at termination, thus ensuring a thorough characterization of the faecal microbiota as a result of defensin treatment."}, "[6]": {"system": "microbiota in diet-induced obese mice", "assay": "interventional treatment of dysbiosis with defensins in diet-induced obese mice (Example 8)", "format": "in vivo", "source_text": "Mice and diets. The experiment elucidates the effect of hBD2 and HD5 on the microbiota in diet-induced obese mice. A run-in period of 13 weeks where mice were fed a very HFD (60% energy from fat) preceded the intervention. Only mice meeting the criteria of a minimum of 12 gram weight gain (approximately 50% of initial bodyweight) during the run-in period were included in the final analyses. […] They were exposed to all experimental tests, but excluded from the analyses.\nTreatment regimen. Before the intervention all mice were MR scanned. Cages of mice were allocated to experimental groups based on their fat mass. All subsequent measures were paired with data from the same mouse before the intervention. A LFD (low fat diet) reference group was running in parallel. As controls for the intervention 2 additional groups were included: 1 very HFD and 1 LFD. Experimental mice stayed on the very HFD during the intervention (FIG. 3). The mice were on the experimental diet for 10 weeks. They were co-housed throughout the experiment, 4 mice per cage, 3 cages per group. All tests ran over 3 days, 1 cage per group per day.\nTests. Microbial analyses were carried out to study the microbiota of the intestine.\nLongitudinal 16S characterization was conducted on 4 paired samples from 60 mice, 240 samples in total. Each mouse was sampled prior to diet change, 1 week post diet change, 4 weeks post diet change and at termination, thus ensuring a thorough characterization of the faecal microbiota as a result of defensin treatment."}, "[7]": {"system": "bacteria at the surface of the intestinal mucosa", "assay": "anti microbial effect of orally administered defensins, mucin immunostaining and localization of bacteria by FISH (Example 16)", "format": "in vivo", "conditions": "compared with mice on low fat or western diet", "protocol": "Anti microbial effect of orally administered defensins (HD5 and hBD-2).\nMucus immunostaining was paired with fluorescent in situ hybridization (FISH), as previously described in order to analyze bacteria localization at the surface of the intestinal mucosa. Briefly, colonic tissues (proximal colon, 2nd cm from the cecum) without fecal material were placed in methanol-Carnoy's fixative solution (60% methanol, 30% chloroform, 10% glacial acetic acid) for a minimum of 3 hours at room temperature. Tissues were then washed in methanol 2×30 min, ethanol 2×15 min, ethanol/xylene (1:1), 15 min and xylene 2×15 min, followed by embedding in Paraffin with a vertical orientation. Five pm sections were performed and dewax by preheating at 60° C. for 10 min, followed by xylene 60° C. for 10 min, xylene for 10 min and 99.5% ethanol for 10 minutes. Hybridization step was performed at 50° C. overnight with EUB338 probe (5′-GCTGCCTCCCGTAGGAGT-3′, with a 5′ labeling using Alexa 647) diluted to a final concentration of 10 μg/mL in hybridization buffer (20 mM Tris-HCl, pH 7.4, 0.9 M NaCl, 0.1% SDS, 20% formamide). After washing 10 min in wash buffer (20 mM Tris-HCl, pH 7.4, 0.9 M NaCl) and 3×10 min in PBS, PAP pen (Sigma-Aldrich) was used to mark around the section and block solution (5% fetal bovine serum in PBS) was added for 30 min at 4° C. […]"}, "[8]": {"system": "acute graft versus host disease following stem cell transplantation", "assay": "prophylactic oral HD5 or hBD-2 in murine model of acute graft versus host disease (Example 15)", "format": "in vivo, BALB/c mice", "protocol": "To determine and assess the efficacy of prophylactic treatment with oral HD5 in a murine model of acute graft versus host disease following stem cell transplantation.\nTreatment regime: 22 female BALB/c mice were irradiated with 4.5 Gy (2×498 sec) at intervals of at least 4 hours on day 0. Bone marrow was harvested: hind limbs harvested from 2 female WT C57BL/6 mice aseptically. Skeletal muscle was removed and epiphysis cut away. Lumen of bone flushed with PBS and cells pelleted and taken up. Harvest of T-cells: spleens from 2 female WT C57BL/6 mice were meshed through a […] cell strainer into a PBS filled dish. Cells were taken up in PBS and transferred into a 50 mL falcon tube and spun down. Cells were taken up in 1 mL PBS and 20 μL of CD4 microbead+20 μL CD8 microbeads per spleen added for incubation for 20 min at 4 degrees C. Cells were washed with PBS and applied to MACS separation in order to positively select CD4+ and CD8+ cells. Positively selected T-cells were counted and taken up. Transplantation: directly after the second irradiation, all WT BALB/c recipient mice were injected with 5×1.000.000 BM cells (50 μL) i.v. into the retroorbital venous plexus under isoflurane anesthesia. 22 BALB/c mice were treated with 1.2 mg of HD5/kg BW/day; 1.2 mg of hBD-2/kg BW/day or 100 μL of PBS per day vial oral gavage from day 0-10.\nSurvival was monitored for 60 days."}, "[9]": {"conditions": "HFD plus HD5, after dietary intervention"}}}
{"compound": "C[C@@H]1C[C@H]2[C@@H]3CCC4=CC(=O)C=C[C@]4(C)[C@@]3(F)[C@@H](O)C[C@]2(C)[C@@]1(O)C(=O)CO", "note": "[Dexamethasone, reference compound]", "values": [{"measurement": "macrophage counts in BALF", "setting": "[1]", "result": "failed to inhibit"}, {"measurement": "neutrophil counts in BALF", "setting": "[1]", "result": "failed to inhibit"}]}
{"compound": "C[C@]12C=CC(=O)C=C1CC[C@@H]1[C@@H]2[C@@H](O)C[C@@]2(C)[C@H]1CC[C@]2(O)C(=O)CO", "note": "[Prednisolone, reference compound]", "values": [{"measurement": "histological score", "setting": "[2]", "result": "highly statistically significant clinical effect on histological score"}, {"measurement": "histological score", "setting": "[3]", "result": "statistically significant effect on histological score"}]}
{"compound": "Enbrel [reference compound]", "values": [{"measurement": "myeloperoxidase activity", "setting": "[4]; colon, day 95", "result": "statistically significant and similar effect"}, {"measurement": "clinical score (body weight loss, stool consistency, presence of blood per rectum)", "setting": "[4]", "result": "statistically significant and similar effect on clinical score"}, {"measurement": "colon weight", "setting": "[4]; day 95", "result": "statistically significant and similar effect on colon weight"}]}
{"compound": "human intestinal alpha defensin 5 (ATCYCRTGRCATRESLSGVCEISGRLYRLCCR; listed as Homo sapiens) [HD5]", "values": [{"measurement": "microbial presence and abundance (unifrac analysis)", "setting": "[5]; prophylactic oral defensins in high fat diet", "result": "affected primarily the microbial abundance"}, {"measurement": "abundance of Allobaculum", "setting": "[5]; small intestine, prophylaxis with HD5", "result": "statistically significant increase of abundance of Allobaculum"}, {"measurement": "fat percentage", "setting": "[6]; HFD plus HD5, 4 weeks after dietary change, versus HFD control", "result": "significantly lower fat percentage"}, {"measurement": "fat percentage", "setting": "[6]; [9]", "result": "tendency of decreasing fat percentage"}, {"measurement": "weight gain", "setting": "[6]; [9]", "result": "gained significantly less weight than the HFD control"}, {"measurement": "abundance of Alloprevotella", "setting": "[6]; colon", "result": "increased the abundance of Alloprevotella statistically significantly"}, {"measurement": "relative abundance of Bifidobacteriaceae", "setting": "[6]; small intestine", "result": "trend towards HD5 increasing the abundance"}, {"measurement": "lysis zone, distance between intestinal wall and bacterial population", "setting": "[7]", "result": "profound effect on the distance"}, {"measurement": "mortality", "setting": "[8]; FIG. 58, oral treatment for 10 days from day of stem cell transplantation", "result": "significant reduction of mortality"}, {"measurement": "treated animals that had died by day 60", "setting": "[8]; oral 1.2 mg/kg/day day 0-10, six out of eight PBS mice died", "result": "2 out of 8"}]}
